Experimental data reported in patent US20120094998A1, “Oligomer-Protein Tyrosine Kinase Inhibitor Conjugates” (Nektar Therapeutics, priority 2009, published 2012).
pIC50: −log10 of the molar value. Read-outs that look alike come from different tables or passages of the source.

Key:
ABL (Q252H) = ABL (Q252H) (Homo sapiens, UniProt P00519, Q252H); experiment: Activity against various protein tyrosine kinases: ABL (Q252H); assay type: biochemical; details: for inhibition at 0.01 µM: read-out: % Inhibition at 10 nM; for inhibition at 1 µM: read-out: % Inhibition at 1 μM
Method: (§1) Using techniques know those of ordinary skill in the art, compounds were tested for activity against various protein tyrosine kinases.

YES = YES (Homo sapiens, UniProt P07947); experiment: Activity against various protein tyrosine kinases: YES; assay type: biochemical; details: for inhibition at 0.01 µM: 10 nM
Sequence of YES (P07947 whole entry, species assumed): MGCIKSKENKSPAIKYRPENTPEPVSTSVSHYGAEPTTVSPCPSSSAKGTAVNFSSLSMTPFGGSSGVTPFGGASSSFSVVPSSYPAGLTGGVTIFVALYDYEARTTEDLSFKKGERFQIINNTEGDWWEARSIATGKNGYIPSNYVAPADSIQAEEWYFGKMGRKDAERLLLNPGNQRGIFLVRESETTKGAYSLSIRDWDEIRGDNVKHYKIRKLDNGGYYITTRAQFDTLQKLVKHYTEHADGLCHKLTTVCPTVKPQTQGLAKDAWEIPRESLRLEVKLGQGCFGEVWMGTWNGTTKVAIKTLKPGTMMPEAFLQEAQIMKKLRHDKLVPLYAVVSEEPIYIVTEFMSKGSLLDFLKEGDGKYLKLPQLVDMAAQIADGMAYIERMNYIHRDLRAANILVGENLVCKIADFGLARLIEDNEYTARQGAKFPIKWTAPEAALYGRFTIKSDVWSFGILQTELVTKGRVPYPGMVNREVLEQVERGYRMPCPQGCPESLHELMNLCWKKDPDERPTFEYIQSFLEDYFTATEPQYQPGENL
Method: as §1

PKG1-beta = biological target: T1, PKG1-beta (Homo sapiens, UniProt Q13976); experiment: Activity against various protein tyrosine kinases: PKG1-beta; assay type: biochemical; details: for inhibition at 0.01 µM: 10 nM
T1 sequence (Q13976 1-686 isoform Q13976-2): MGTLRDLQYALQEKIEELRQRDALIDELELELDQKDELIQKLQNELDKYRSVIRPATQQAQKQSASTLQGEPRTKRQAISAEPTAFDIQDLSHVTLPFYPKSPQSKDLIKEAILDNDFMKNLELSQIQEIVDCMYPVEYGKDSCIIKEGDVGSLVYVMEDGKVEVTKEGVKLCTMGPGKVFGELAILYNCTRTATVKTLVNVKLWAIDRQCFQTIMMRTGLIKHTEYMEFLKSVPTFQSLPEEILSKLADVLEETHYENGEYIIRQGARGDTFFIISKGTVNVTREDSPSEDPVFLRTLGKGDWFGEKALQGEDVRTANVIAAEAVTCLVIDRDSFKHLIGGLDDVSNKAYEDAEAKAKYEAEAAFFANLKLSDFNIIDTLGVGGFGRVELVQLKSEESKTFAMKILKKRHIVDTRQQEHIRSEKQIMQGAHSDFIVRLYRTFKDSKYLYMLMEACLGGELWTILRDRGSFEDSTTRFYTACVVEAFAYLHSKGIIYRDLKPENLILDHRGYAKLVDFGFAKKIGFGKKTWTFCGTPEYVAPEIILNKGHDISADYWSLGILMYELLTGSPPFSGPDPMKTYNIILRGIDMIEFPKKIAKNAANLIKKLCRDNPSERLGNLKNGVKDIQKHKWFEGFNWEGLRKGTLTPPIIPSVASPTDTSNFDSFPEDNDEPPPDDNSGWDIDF
Method: as §1

ABL [1] = biological target: T2, ABL (Homo sapiens, UniProt P00519)
ABL [2] = biological target: T2, ABL; experiment: Off-chip mobility-shift kinase assay (Caliper LABCHIP), ABL
PKA = experiment: Activity against various protein tyrosine kinases: PKA; assay type: biochemical
Method: as §1

IKK-beta = biological target: T3, IKK-beta (Homo sapiens, UniProt O14920); experiment: Activity against various protein tyrosine kinases: IKK-beta; assay type: biochemical; details: for inhibition at 0.01 µM: 10 nM
T3 sequence (O14920 1-756): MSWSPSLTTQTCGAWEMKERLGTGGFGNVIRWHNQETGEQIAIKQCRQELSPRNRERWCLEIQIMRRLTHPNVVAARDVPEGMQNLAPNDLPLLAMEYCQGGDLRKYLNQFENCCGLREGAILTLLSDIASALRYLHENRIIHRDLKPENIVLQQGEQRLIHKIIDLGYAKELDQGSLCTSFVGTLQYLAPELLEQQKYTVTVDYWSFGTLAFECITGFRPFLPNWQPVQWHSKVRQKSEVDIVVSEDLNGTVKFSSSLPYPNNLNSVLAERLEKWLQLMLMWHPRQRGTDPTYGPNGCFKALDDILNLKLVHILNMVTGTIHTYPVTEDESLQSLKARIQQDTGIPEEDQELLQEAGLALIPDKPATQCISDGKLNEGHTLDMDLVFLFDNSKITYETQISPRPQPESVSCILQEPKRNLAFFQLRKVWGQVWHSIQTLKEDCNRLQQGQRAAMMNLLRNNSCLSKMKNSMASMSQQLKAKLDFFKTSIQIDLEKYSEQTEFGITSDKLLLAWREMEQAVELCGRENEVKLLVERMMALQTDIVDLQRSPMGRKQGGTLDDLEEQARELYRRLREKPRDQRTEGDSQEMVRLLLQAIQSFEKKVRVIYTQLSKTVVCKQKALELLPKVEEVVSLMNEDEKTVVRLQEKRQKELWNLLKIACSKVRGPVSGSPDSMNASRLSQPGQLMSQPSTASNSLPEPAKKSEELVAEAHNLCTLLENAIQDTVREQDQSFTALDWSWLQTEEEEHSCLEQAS
Method: as §1

INSR = INSR (Homo sapiens, UniProt P06213); experiment: Activity against various protein tyrosine kinases: INSR; assay type: biochemical; details: for inhibition at 0.01 µM: 10 nM
Sequence of INSR (P06213 28-1382, species assumed): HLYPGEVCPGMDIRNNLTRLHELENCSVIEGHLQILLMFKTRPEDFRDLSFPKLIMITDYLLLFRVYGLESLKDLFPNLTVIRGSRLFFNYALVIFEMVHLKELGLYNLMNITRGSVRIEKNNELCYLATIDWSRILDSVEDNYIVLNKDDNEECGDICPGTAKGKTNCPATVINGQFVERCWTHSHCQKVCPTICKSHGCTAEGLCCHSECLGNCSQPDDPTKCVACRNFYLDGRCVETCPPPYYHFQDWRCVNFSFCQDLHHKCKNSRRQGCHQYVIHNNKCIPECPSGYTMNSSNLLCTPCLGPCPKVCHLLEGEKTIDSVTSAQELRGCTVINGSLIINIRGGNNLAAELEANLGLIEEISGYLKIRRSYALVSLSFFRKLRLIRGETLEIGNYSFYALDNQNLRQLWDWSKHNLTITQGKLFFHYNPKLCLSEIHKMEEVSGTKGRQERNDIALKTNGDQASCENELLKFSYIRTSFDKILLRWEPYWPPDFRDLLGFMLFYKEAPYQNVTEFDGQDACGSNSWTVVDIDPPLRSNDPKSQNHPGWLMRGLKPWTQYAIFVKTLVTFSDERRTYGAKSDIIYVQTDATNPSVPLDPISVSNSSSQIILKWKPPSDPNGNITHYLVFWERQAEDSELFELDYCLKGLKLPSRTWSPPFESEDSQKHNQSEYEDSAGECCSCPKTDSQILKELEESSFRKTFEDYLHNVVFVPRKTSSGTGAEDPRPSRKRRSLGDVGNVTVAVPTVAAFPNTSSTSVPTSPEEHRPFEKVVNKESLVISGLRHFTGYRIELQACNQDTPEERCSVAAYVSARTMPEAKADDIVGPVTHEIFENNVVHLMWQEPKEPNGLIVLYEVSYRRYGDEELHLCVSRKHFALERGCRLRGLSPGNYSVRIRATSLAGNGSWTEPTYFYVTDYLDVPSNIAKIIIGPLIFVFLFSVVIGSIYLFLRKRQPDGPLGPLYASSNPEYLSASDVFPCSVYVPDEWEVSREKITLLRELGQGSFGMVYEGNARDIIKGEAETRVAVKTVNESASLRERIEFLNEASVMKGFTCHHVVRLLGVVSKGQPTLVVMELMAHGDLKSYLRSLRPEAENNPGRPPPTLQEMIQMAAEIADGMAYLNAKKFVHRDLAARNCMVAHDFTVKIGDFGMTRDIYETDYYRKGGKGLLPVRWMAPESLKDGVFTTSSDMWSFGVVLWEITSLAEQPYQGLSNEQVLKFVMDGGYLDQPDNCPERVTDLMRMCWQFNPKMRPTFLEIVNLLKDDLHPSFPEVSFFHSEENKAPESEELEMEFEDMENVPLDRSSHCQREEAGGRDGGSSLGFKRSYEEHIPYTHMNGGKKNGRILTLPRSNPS
Method: as §1

LYN = LYN (Homo sapiens, UniProt P07948); experiment: Activity against various protein tyrosine kinases: LYN; assay type: biochemical; details: for inhibition at 0.01 µM: 10 nM
Sequence of LYN (P07948 whole entry, species assumed): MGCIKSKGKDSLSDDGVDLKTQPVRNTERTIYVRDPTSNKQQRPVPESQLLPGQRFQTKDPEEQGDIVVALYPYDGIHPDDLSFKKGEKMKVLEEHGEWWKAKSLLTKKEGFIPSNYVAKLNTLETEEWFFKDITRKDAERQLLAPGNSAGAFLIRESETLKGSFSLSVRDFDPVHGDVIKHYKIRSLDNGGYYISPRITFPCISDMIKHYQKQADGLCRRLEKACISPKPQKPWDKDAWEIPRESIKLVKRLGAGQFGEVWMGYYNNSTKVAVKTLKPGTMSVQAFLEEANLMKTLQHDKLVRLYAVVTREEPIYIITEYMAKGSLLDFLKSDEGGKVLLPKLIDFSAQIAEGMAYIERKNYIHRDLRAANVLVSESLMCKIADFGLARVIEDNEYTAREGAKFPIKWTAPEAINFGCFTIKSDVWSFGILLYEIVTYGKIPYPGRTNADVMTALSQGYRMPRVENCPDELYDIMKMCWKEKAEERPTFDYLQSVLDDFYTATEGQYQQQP
Method: as §1

FGFR1 = FGFR1 (Homo sapiens, UniProt P11362); experiment: Activity against various protein tyrosine kinases: FGFR1; assay type: biochemical; details: for inhibition at 0.01 µM: 10 nM
Sequence of FGFR1 (P11362 22-822, species assumed): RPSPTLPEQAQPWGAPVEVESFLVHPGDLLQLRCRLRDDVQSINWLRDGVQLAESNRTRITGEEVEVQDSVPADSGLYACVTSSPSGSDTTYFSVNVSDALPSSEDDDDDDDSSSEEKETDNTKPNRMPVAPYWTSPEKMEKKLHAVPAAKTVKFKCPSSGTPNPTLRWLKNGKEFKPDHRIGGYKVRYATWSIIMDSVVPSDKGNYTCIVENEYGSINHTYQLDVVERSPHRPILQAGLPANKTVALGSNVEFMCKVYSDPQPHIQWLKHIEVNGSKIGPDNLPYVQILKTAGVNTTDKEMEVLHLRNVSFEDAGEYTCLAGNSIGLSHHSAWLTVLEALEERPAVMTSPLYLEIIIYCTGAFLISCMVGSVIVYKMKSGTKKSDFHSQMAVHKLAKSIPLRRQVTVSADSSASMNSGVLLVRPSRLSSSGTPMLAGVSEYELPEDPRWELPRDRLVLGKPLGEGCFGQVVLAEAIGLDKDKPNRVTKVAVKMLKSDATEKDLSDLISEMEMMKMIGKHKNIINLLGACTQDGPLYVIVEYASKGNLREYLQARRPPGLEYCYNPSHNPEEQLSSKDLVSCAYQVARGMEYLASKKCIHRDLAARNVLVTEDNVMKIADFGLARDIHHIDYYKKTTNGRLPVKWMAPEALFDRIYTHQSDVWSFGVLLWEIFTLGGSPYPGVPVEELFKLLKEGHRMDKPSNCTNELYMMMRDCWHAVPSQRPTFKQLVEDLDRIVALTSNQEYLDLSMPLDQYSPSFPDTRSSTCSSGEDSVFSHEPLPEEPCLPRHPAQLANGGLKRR
Method: as §1

Erk1 = Erk1 (Homo sapiens, UniProt P27361); experiment: Activity against various protein tyrosine kinases: Erk1; assay type: biochemical; details: for inhibition at 0.01 µM: 10 nM
Sequence of Erk1 (P27361 whole entry, species assumed): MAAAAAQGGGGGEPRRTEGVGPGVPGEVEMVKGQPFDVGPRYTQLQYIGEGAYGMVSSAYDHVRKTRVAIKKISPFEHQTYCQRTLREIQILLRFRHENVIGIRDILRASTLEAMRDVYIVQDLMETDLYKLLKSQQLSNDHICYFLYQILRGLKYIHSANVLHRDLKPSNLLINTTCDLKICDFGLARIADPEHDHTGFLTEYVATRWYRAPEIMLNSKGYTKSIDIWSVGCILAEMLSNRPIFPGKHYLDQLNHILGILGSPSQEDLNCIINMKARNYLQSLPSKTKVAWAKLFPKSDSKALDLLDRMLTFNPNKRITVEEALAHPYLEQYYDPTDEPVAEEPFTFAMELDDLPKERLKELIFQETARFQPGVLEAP
Method: as §1

Compound	inhibition at 0.01 µM (YES) [%]	inhibition at 1 µM (YES) [%]	inhibition at 0.01 µM (PKG1-beta) [%]	inhibition at 1 µM (PKG1-beta) [%]	pIC50 (ABL [2])	% Inhibition at 10 nM (PKA) [%]	% Inhibition at 1 μM (PKA) [%]	inhibition at 0.01 µM (IKK-beta) [%]	inhibition at 1 µM (IKK-beta) [%]	inhibition at 0.01 µM (INSR) [%]	inhibition at 1 µM (INSR) [%]	inhibition at 0.01 µM (LYN) [%]	inhibition at 1 µM (LYN) [%]	inhibition at 0.01 µM (FGFR1) [%]	inhibition at 1 µM (FGFR1) [%]	inhibition at 0.01 µM (Erk1) [%]	inhibition at 1 µM (Erk1) [%]	also measured
COCCOCCOCCNC(=O)OCCN1CCN(c2cc(Nc3ncc(C(=O)Nc4c(C)cccc4Cl)s3)nc(C)n2)CC1 [mPEG3-NHCOO-Dasatinib]	100	100	-2	0	9.52	3	0	0	1	1	-1	99	99	11	-3	3	2	inhibition at 0.01 µM (ABL (Q252H)): 98%; inhibition at 1 µM (ABL (Q252H)): 99%; ABL AVG % Activity at 1.0E−09 (ABL [1]): 4%; ABL AVG % Activity at 1.0E−10 (ABL [1]): 81%; ABL AVG % Activity at 1.0E−11 (ABL [1]): 99%; ABL AVG % Activity at 3.0E−09 (ABL [1]): 0%; ABL AVG % Activity at 3.0E−10 (ABL [1]): 47%; ABL AVG % Activity at 3.0E−11 (ABL [1]): 95%
COCCOCCOCCOCCOCCOCCOCCNC(=O)OCCN1CCN(c2cc(Nc3ncc(C(=O)Nc4c(C)cccc4Cl)s3)nc(C)n2)CC1 [mPEG7-NHCOO-Dasatinib]	100	102	-3	-3	9.49	0	2	2	2	2	3	98	98	2	3	3	4	inhibition at 0.01 µM (ABL (Q252H); ABL (Q252H), 10 nM): 99%; inhibition at 1 µM (ABL (Q252H); ABL (Q252H), 1 μM): 99%; ABL AVG % Activity at 1.0E−09 (ABL [2]; concentration 1.0E−09, dasatinib-corresponding compounds): 4%; ABL AVG % Activity at 1.0E−10 (ABL [2]; concentration 1.0E−10, dasatinib-corresponding compounds): 80%; ABL AVG % Activity at 1.0E−11 (ABL [2]; concentration 1.0E−11, dasatinib-corresponding compounds): 98%; ABL AVG % Activity at 3.0E−09 (ABL [2]; concentration 3.0E−09, dasatinib-corresponding compounds): −1%; ABL AVG % Activity at 3.0E−10 (ABL [2]; concentration 3.0E−10, dasatinib-corresponding compounds): 48%; ABL AVG % Activity at 3.0E−11 (ABL [2]; concentration 3.0E−11, dasatinib-corresponding compounds): 91%
